According to US20240092835A1, “NOVEL PEPTIDES CAPABLE OF ALTERING NK CELL ACTIVITY” (Massachusetts Institute of Technology, priority 2022, published 2024):
Where no end group is shown, it is not given here.

How the values were obtained:
NKG2A−/NKG2C− NK cells = assay: NK cell activation markers in control NKG2A-/NKG2C- NK cells incubated with peptide and K562 expressing HLA-E; assay type: cell-based, human; settings: Trial 6
In short: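 Percent of NK cells positive for cell-surface markers was measured after exposure to K562 targets expressing HLA-E and loaded with human- or HCMV-proteome-derived peptides. A decrease means inhibition, an increase activation; NKG2A−/NKG2C− cells served as controls.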

CD94/NKG2A = CD94/NKG2A (Homo sapiens, UniProt P26715+Q13241); assay: Steady-state surface plasmon resonance of peptide-HLA-E complex with CD94/NKG2A; assay type: binding; settings: for Binding of peptide-HLA-E complexes to CD94/NKG2A normalized to a theoretical Rmax: steady-state SPR
Experimental: (§1) Binding affinity of novel peptides linked to HLA-E was determined using surface plasmon resonance (SPR), a methodology used to study protein-protein interactions (Tables 15-19). The peptide-HLA-E complex (generated as a single chain trimer) was immobilized on the sensor chip surface and CD94/NKG2A or CD94/NKG2C were flowed over. Steady-state surface plasmon resonance experiments were performed with a Biacore T200 instrument. CD94/NKG2x in HBS-EP+ buffer was injected as analyte in a concentration range of 0.1 μM to 102.4 μM and flow rate of 10 μL/min at 25° C. Data was fit with Prism 9.4 (GraphPad Software Inc; San Diego CA) to a “one site, specific binding” model. Series S CM5 chips were coupled to neutravidin and utilized. Biotinylated pMHC was immobilized at approximately 400 RU. KD values calculated by Biacore software are reported. Rmax, fit values were calculated by Biacore software. Rmax, theoretical values were calculated using the analyte/ligand mass ratio (0.66) multiplied by the amount of ligand coupled to the chip.

CD94/NKG2C = CD94/NKG2C (Homo sapiens, UniProt P26717+Q13241); assay: Steady-state surface plasmon resonance of peptide-HLA-E complex with CD94/NKG2C; assay type: binding; settings: for Binding of peptide-HLA-E complexes to CD94/NKG2C normalized to a theoretical Rmax: steady-state SPR
Experimental: as §1

CD94/NKG2A, sequence (P26715 94-233 limits assumed): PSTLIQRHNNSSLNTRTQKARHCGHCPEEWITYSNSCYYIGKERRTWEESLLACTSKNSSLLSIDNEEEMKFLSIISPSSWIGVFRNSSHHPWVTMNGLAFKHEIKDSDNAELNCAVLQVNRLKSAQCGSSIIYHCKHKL
CD94/NKG2A, sequence (Q13241 32-179 limits assumed): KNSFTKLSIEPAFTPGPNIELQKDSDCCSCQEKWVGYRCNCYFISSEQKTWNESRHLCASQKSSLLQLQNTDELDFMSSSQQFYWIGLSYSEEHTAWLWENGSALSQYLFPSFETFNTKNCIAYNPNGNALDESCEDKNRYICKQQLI
CD94/NKG2C, sequence (P26717 94-231 limits assumed): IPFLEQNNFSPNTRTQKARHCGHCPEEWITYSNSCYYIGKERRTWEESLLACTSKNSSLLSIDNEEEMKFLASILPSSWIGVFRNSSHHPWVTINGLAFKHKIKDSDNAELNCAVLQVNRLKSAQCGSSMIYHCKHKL
CD94/NKG2C, sequence (Q13241 32-179 limits assumed): as the sequence (Q13241 32-179 limits assumed) above

- binding of peptide-HLA-E complex to CD94/NKG2A normalized to a fitted Rmax (CD94/NKG2A; CD94/NKG2A concentration 0 μM): −0.007
- binding of peptide-HLA-E complex to CD94/NKG2A normalized to a fitted Rmax (CD94/NKG2A; CD94/NKG2A concentration 0.1 μM): 0.023
- binding of peptide-HLA-E complex to CD94/NKG2A normalized to a fitted Rmax (CD94/NKG2A; CD94/NKG2A concentration 0.2 μM): 0.046
- binding of peptide-HLA-E complex to CD94/NKG2A normalized to a fitted Rmax (CD94/NKG2A; CD94/NKG2A concentration 0.4 μM): 0.094
- binding of peptide-HLA-E complex to CD94/NKG2A normalized to a fitted Rmax (CD94/NKG2A; CD94/NKG2A concentration 0.8 μM): 0.173
- binding of peptide-HLA-E complex to CD94/NKG2A normalized to a fitted Rmax (CD94/NKG2A; CD94/NKG2A concentration 1.6 μM): 0.293
- binding of peptide-HLA-E complex to CD94/NKG2A normalized to a fitted Rmax (CD94/NKG2A; CD94/NKG2A concentration 3.2 μM): 0.450
- binding of peptide-HLA-E complex to CD94/NKG2A normalized to a fitted Rmax (CD94/NKG2A; CD94/NKG2A concentration 6.4 μM): 0.618
- binding of peptide-HLA-E complex to CD94/NKG2A normalized to a fitted Rmax (CD94/NKG2A; CD94/NKG2A concentration 12.8 μM): 0.766
- binding of peptide-HLA-E complex to CD94/NKG2A normalized to a fitted Rmax (CD94/NKG2A; CD94/NKG2A concentration 25.6 μM): 0.873
- binding of peptide-HLA-E complex to CD94/NKG2A normalized to a fitted Rmax (CD94/NKG2A; CD94/NKG2A concentration 51.2 μM): 0.942
- binding of peptide-HLA-E complex to CD94/NKG2A normalized to a fitted Rmax (CD94/NKG2A; CD94/NKG2A concentration 102.4 μM): 0.954
- Binding of peptide-HLA-E complexes to CD94/NKG2A normalized to a theoretical Rmax (CD94/NKG2A; CD94/NKG2A analyte concentration 0.000 μM): −0.005
- Binding of peptide-HLA-E complexes to CD94/NKG2A normalized to a theoretical Rmax (CD94/NKG2A; CD94/NKG2A analyte concentration 0.100 μM): 0.017
- Binding of peptide-HLA-E complexes to CD94/NKG2A normalized to a theoretical Rmax (CD94/NKG2A; CD94/NKG2A analyte concentration 0.200 μM): 0.034
- Binding of peptide-HLA-E complexes to CD94/NKG2A normalized to a theoretical Rmax (CD94/NKG2A; CD94/NKG2A analyte concentration 0.400 μM): 0.070
- Binding of peptide-HLA-E complexes to CD94/NKG2A normalized to a theoretical Rmax (CD94/NKG2A; CD94/NKG2A analyte concentration 0.800 μM): 0.131
- Binding of peptide-HLA-E complexes to CD94/NKG2A normalized to a theoretical Rmax (CD94/NKG2A; CD94/NKG2A analyte concentration 1.600 μM): 0.221
- Binding of peptide-HLA-E complexes to CD94/NKG2A normalized to a theoretical Rmax (CD94/NKG2A; CD94/NKG2A analyte concentration 3.200 μM): 0.339
- Binding of peptide-HLA-E complexes to CD94/NKG2A normalized to a theoretical Rmax (CD94/NKG2A; CD94/NKG2A analyte concentration 6.400 μM): 0.465
- Binding of peptide-HLA-E complexes to CD94/NKG2A normalized to a theoretical Rmax (CD94/NKG2A; CD94/NKG2A analyte concentration 12.800 μM): 0.577
- Binding of peptide-HLA-E complexes to CD94/NKG2A normalized to a theoretical Rmax (CD94/NKG2A; CD94/NKG2A analyte concentration 25.600 μM): 0.657
- Binding of peptide-HLA-E complexes to CD94/NKG2A normalized to a theoretical Rmax (CD94/NKG2A; CD94/NKG2A analyte concentration 51.200 μM): 0.709
- Binding of peptide-HLA-E complexes to CD94/NKG2A normalized to a theoretical Rmax (CD94/NKG2A; CD94/NKG2A analyte concentration 102.400 μM): 0.718
- binding of peptide-HLA-E complex to CD94/NKG2C normalized to a fitted Rmax (CD94/NKG2C; CD94/NKG2C concentration 0 μM): −0.005
- binding of peptide-HLA-E complex to CD94/NKG2C normalized to a fitted Rmax (CD94/NKG2C; CD94/NKG2C concentration 0.1 μM): 0.003
- binding of peptide-HLA-E complex to CD94/NKG2C normalized to a fitted Rmax (CD94/NKG2C; CD94/NKG2C concentration 0.2 μM): 0.009
- binding of peptide-HLA-E complex to CD94/NKG2C normalized to a fitted Rmax (CD94/NKG2C; CD94/NKG2C concentration 0.4 μM): 0.023
- binding of peptide-HLA-E complex to CD94/NKG2C normalized to a fitted Rmax (CD94/NKG2C; CD94/NKG2C concentration 0.8 μM): 0.046
- binding of peptide-HLA-E complex to CD94/NKG2C normalized to a fitted Rmax (CD94/NKG2C; CD94/NKG2C concentration 1.6 μM): 0.089
- binding of peptide-HLA-E complex to CD94/NKG2C normalized to a fitted Rmax (CD94/NKG2C; CD94/NKG2C concentration 3.2 μM): 0.168
- binding of peptide-HLA-E complex to CD94/NKG2C normalized to a fitted Rmax (CD94/NKG2C; CD94/NKG2C concentration 6.4 μM): 0.281
- binding of peptide-HLA-E complex to CD94/NKG2C normalized to a fitted Rmax (CD94/NKG2C; CD94/NKG2C concentration 12.8 μM): 0.443
- binding of peptide-HLA-E complex to CD94/NKG2C normalized to a fitted Rmax (CD94/NKG2C; CD94/NKG2C concentration 25.6 μM): 0.621
- binding of peptide-HLA-E complex to CD94/NKG2C normalized to a fitted Rmax (CD94/NKG2C; CD94/NKG2C concentration 51.2 μM): 0.755
- binding of peptide-HLA-E complex to CD94/NKG2C normalized to a fitted Rmax (CD94/NKG2C; CD94/NKG2C concentration 102.4 μM): 0.867
- Binding of peptide-HLA-E complexes to CD94/NKG2C normalized to a theoretical Rmax (CD94/NKG2C; CD94/NKG2C analyte concentration 0 μM): −0.003
- Binding of peptide-HLA-E complexes to CD94/NKG2C normalized to a theoretical Rmax (CD94/NKG2C; CD94/NKG2C analyte concentration 0.1 μM): 0.002
- Binding of peptide-HLA-E complexes to CD94/NKG2C normalized to a theoretical Rmax (CD94/NKG2C; CD94/NKG2C analyte concentration 0.2 μM): 0.007
- Binding of peptide-HLA-E complexes to CD94/NKG2C normalized to a theoretical Rmax (CD94/NKG2C; CD94/NKG2C analyte concentration 0.4 μM): 0.017
- Binding of peptide-HLA-E complexes to CD94/NKG2C normalized to a theoretical Rmax (CD94/NKG2C; CD94/NKG2C analyte concentration 0.8 μM): 0.034
- Binding of peptide-HLA-E complexes to CD94/NKG2C normalized to a theoretical Rmax (CD94/NKG2C; CD94/NKG2C analyte concentration 1.6 μM): 0.066
- Binding of peptide-HLA-E complexes to CD94/NKG2C normalized to a theoretical Rmax (CD94/NKG2C; CD94/NKG2C analyte concentration 3.2 μM): 0.124
- Binding of peptide-HLA-E complexes to CD94/NKG2C normalized to a theoretical Rmax (CD94/NKG2C; CD94/NKG2C analyte concentration 6.4 μM): 0.207
- Binding of peptide-HLA-E complexes to CD94/NKG2C normalized to a theoretical Rmax (CD94/NKG2C; CD94/NKG2C analyte concentration 12.8 μM): 0.326
- Binding of peptide-HLA-E complexes to CD94/NKG2C normalized to a theoretical Rmax (CD94/NKG2C; CD94/NKG2C analyte concentration 25.6 μM): 0.457
- Binding of peptide-HLA-E complexes to CD94/NKG2C normalized to a theoretical Rmax (CD94/NKG2C; CD94/NKG2C analyte concentration 51.2 μM): 0.555
- Binding of peptide-HLA-E complexes to CD94/NKG2C normalized to a theoretical Rmax (CD94/NKG2C; CD94/NKG2C analyte concentration 102.4 μM): 0.638
Sequence: TLPKRGLFL [human2, TLPKRGLFL]
- percentage of IFNG+ NK cells (NKG2A−/NKG2C− NK cells): 10%
